Values quoted from earlier work in EP4060021A1, “MIMETIC MICROBIOLOGICAL CULTURE MEDIUM AND USES THEREOF” (BIOFILM PHARMA, priority 2021, dated 2022).
Where two headings read alike, the source gives them in different places.

How the values were obtained:
[1] = system: souches de S. aureus issues de plaies; conditions: cited from earlier work
souche de S. aureus = conditions: modèle de sepsis, souris infectée par S. aureus, traitées; cited from earlier work
S. aureus = conditions: coculture S. aureus avec P. aeruginosa dans du milieu Lubbock; cited from earlier work
P. aeruginosa = conditions: coculture S. aureus avec P. aeruginosa dans du milieu Lubbock; cited from earlier work

## CCCCCCCCCC(=O)N[C@@H](Cc1c[nH]c2ccccc12)C(=O)N[C@@H](CC(N)=O)C(=O)N[C@@H](CC(=O)O)C(=O)N[C@@H]1C(=O)NCC(=O)N[C@@H](CCCN)C(=O)N[C@@H](CC(=O)O)C(=O)N[C@H](C)C(=O)N[C@@H](CC(=O)O)C(=O)NCC(=O)N[C@H](CO)C(=O)N[C@@H]([C@H](C)CC(=O)O)C(=O)N[C@@H](CC(=O)c2ccccc2N)C(=O)O[C@@H]1C (stereo in doubt) [daptomycine]
[1]; milieu DMEM
  sensibilité des souches de S. aureus: plus sensibles
[1]; milieux MLM ou Lacks
  sensibilité des souches de S. aureus: plus résistantes

## CC(=O)OCC1=C(C(=O)O)N2C(=O)[C@@H](NC(=O)Cc3cccs3)[C@H]2SC1 [cefalotine]
Souche de S. aureus
  survie des souris: ont survécu

## CO/N=C(\C(=O)N[C@@H]1C(=O)N2C(C(=O)O)=C(CSc3nc(=O)c(=O)[nH]n3C)CS[C@H]12)c1csc(N)n1 [ceftriaxone]
Souche de S. aureus
  survie des souris: ont survécu

## CC[C@H]1OC(=O)[C@H](C)[C@@H](O[C@H]2C[C@@](C)(OC)[C@@H](O)[C@H](C)O2)[C@H](C)[C@@H](O[C@@H]2O[C@H](C)C[C@H](N(C)C)[C@H]2O)[C@](C)(O)C[C@@H](C)C(=O)[C@H](C)[C@@H](O)[C@]1(C)O [érythromycine]
Souche de S. aureus
  survie des souris: ont survécu

## gentamicine
S. aureus
  résistance en coculture: résistance partielle
P. aeruginosa
  résistance en coculture: ce qui n'est pas le cas
